Assay: pH-triggered hydrolysis (T1/2) in TRIS buffer at 37° C., HPLC with AZT internal reference
Assay type: physicochemical
Conditions: pH 8, hydrolysis of aminouridine carbamate, process of Example 1
Procedure: In the following experiment, the T1/2 at pH 8 is calculated to be approx. 11 h, which translates to 44 h at pH 7.4 (factor 4×). ˜1 mg conjugate was dissolved in a volume of 20% MeCN in water. An appropriate amount of azidothymidine (AZT) was added as an internal reference and the hydrolysis was started by addition of a volume of 0.3 M TRIS buffer solution at pH 8.0. The reaction mixture was then kept at 37° C. 30 μL aliquots were taken at each time point and acidified by addition of 20 μL 1 M AcOH before injection to HPLC.

half-life: 12 days
SMILES: O=C(NC1C(O)[C@@H](CO)O[C@H]1n1ccc(=O)[nH]c1=O)OCC(c1ccccc1)c1ccccc1 (stereo partly shown) [compound 1]

From US11957735B2, “Releasable GLP-1 conjugates” (QuiaPEG Pharmaceuticals AB, priority 2018, dated 2024)
